≈ marks a conversion by molar mass, not a printed value. Calls of active or inactive are those of the source. The calls are words filed in the database; no cut-off is given here.
Key:
Staphylococcus simulans = test: Antibacterial activity against Staphylococcus simulans 22 after 24 hrs; format: functional; details: Staphylococcus simulans, 22, 24 h
Mycolicibacterium phlei = test: Antibacterial activity against Mycobacterium phlei after 24 hrs; format: functional
Bacillus licheniformis [1] = test: Antibacterial activity against Bacillus licheniformis MW3 after 24 hrs; format: functional; details: MW3, 24 h
Staphylococcus aureus [2] = test: Antibacterial activity against Staphylococcus aureus; format: functional
Priestia megaterium = test: Antibacterial activity against Bacillus megaterium; format: functional
Escherichia coli = test: Antibacterial activity against Escherichia coli; format: functional, organism-based
Wolbachia [3] = test: Antibacterial activity against Wolbachia; format: functional
Bacillus cereus = test: Antibacterial activity against Bacillus cereus after 24 hrs; format: functional
Bacillus licheniformis [4] = test: Antibacterial activity against Bacillus licheniformis DSM13 after 24 hrs; format: functional; details: DSM 13 = ATCC 14580, 24 h
Bacillus subtilis = test: Antibacterial activity against Bacillus subtilis 168 after 24 hrs; format: functional; details: subsp. subtilis str. 168, 24 h
Micrococcus luteus = test: Antibacterial activity against Micrococcus luteus ATCC 4698 after 24 hrs; format: functional; details: ATCC 4698, 24 h
[5] = tested on: Mycolicibacterium smegmatis; test: Antibacterial activity against Mycobacterium smegmatis after 24 hrs; format: functional
Staphylococcus aureus [6] = test: Antibacterial activity against Staphylococcus aureus SG511 after 24 hrs; format: functional; details: SG511, 24 h
Wolbachia [7] = test: Antibacterial activity against Wolbachia infected in C6/36 cells assessed as decrease in 16s rRNA copies at 0.01, 0.1 and 0.5 microg/ml by qPCR analysis; format: functional, cell-based
Wolbachia [8] = test: Antibacterial activity against Wolbachia infected in C6/36 cells assessed as decrease in 16s rRNA copies by qPCR analysis; format: functional, cell-based

SMILES | MIC (Staphylococcus simulans) | MIC (Mycolicibacterium phlei) | MIC (Bacillus licheniformis [1]) | other results
C/C=C/C/C=C(/C)[C@@H](CC/C(C)=C/C=C(\C)C(=O)c1c(O)cc([C@H](C)CC/C=C/NC(=O)OC)oc1=O)OC(C)=O | 64 µg/mL (≈ 112 µM) | > 64 µg/mL | 64 µg/mL (≈ 112 µM) | –
CC/C=C/C/C=C(/C)[C@H](O)CC/C(C)=C/C=C(\C)C(=O)c1c(O)cc([C@H](C)CC/C=C/NC(=O)OC)oc1=O | – | – | – | MIC (Staphylococcus aureus [2]): 0.4 µg/mL (≈ 0.738 µM); MIC (Priestia megaterium): 1.6 µg/mL (≈ 2.95 µM)
C/C=C/C/C=C(/C)[C@@H](CC/C(C)=C/C=C(\C)C(=O)c1c(O)cc([C@H](C)CC/C=C/NC(=O)OC)oc1=O)OC(=O)c1ccc(F)cc1 | > 64 µg/mL | – | > 64 µg/mL | –
C/C=C/C/C=C(/C)[C@@H](CC/C(C)=C/C=C(\C)C(=O)c1c(O)cc([C@H](C)CC/C=C/NC(=O)OC)oc1=O)OC(=O)COC(C)=O | > 64 µg/mL | – | > 64 µg/mL | –
C/C=C/C/C=C(/C)[C@@H](CC/C(C)=C/C=C(\C)C(=O)c1c(O)cc([C@H](C)CC/C=C/NC(=O)OC)oc1=O)OC(=O)c1cccs1 | > 64 µg/mL | – | > 64 µg/mL | –
C/C=C/C/C=C(/C)[C@@H](CC/C(C)=C/C=C(\C)C(=O)c1c(O)cc([C@H](C)CC/C=C/NC(=O)OC)oc1=O)OC(=O)c1ccco1 | 64 µg/mL (≈ 103 µM) | > 64 µg/mL | 64 µg/mL (≈ 103 µM) | –
C/C=C/C/C=C(/C)C(O)CC/C(C)=C\C=C(/C)C(=O)c1c(O)cc([C@H](C)CC/C=C/NC(=O)OC)oc1=O (some centres not stated) | – | – | – | MIC (Staphylococcus aureus [2]): 0.1 µg/mL (≈ 0.19 µM); MIC (Priestia megaterium): 0.8 µg/mL (≈ 1.52 µM)
C/C=C/C/C=C(/C)[C@@H](CC/C(C)=C/C=C(\C)C(=O)c1c(O)cc([C@H](C)CC/C=C/NC(=O)OC)oc1=O)OC(=O)[C@](OC)(c1ccccc1)C(F)(F)F | 32 µg/mL (≈ 43 µM) | > 64 µg/mL | > 16 µg/mL | –
CCCCCCCCCCCCC/C=C/[C@@H](O)[C@H](CO)NC(=O)CCCCCCNC(=O)OC | – | – | – | Activity (Priestia megaterium): inactive; Activity (Escherichia coli): inactive; Activity (Wolbachia [3]): inactive
C/C=C/C/C=C(/C)[C@@H](CC/C(C)=C/C=C(\C)C(=O)c1c(O)cc([C@H](C)CC/C=C/NC(=O)OC)oc1=O)OC(=O)CCCCCCCCC | > 64 µg/mL | – | 64 µg/mL (≈ 93.9 µM) | –
C/C=C/C/C=C(/C)C(=O)CC/C(C)=C/C=C(\C)C(=O)c1c(O)cc([C@H](C)CC/C=C/NC(=O)OC)oc1=O | 16 µg/mL (≈ 30.4 µM) | – | 32 µg/mL (≈ 60.9 µM) | –
C/C=C/C/C=C(/C)CCC/C(C)=C/C=C(\C)C(=O)c1c(O)cc([C@H](C)CC/C=C/NC(=O)OC)oc1=O | 4 µg/mL (≈ 7.82 µM) | – | – | MIC (Bacillus cereus): 2 µg/mL (≈ 3.91 µM); MIC (Bacillus licheniformis [4]): 4 µg/mL (≈ 7.82 µM); MIC (Bacillus subtilis): 32 µg/mL (≈ 62.5 µM); MIC (Micrococcus luteus): 4 µg/mL (≈ 7.82 µM); MIC [5]: > 64 µg/mL; MIC (Staphylococcus aureus [6]): 2 µg/mL (≈ 3.91 µM); inhibition (Wolbachia [7]): Active
C/C=C/C/C=C(/C)C1CCC(C)(C/C=C(\C)C(=O)c2c(O)cc([C@H](C)CC/C=C/NC(=O)OC)oc2=O)O1 (some centres not stated) | – | – | – | MIC (Staphylococcus aureus [2]): 0.4 µg/mL (≈ 0.758 µM); MIC (Priestia megaterium): 1.6 µg/mL (≈ 3.03 µM)
C/C=C/C/C=C(\C)C(O)CC/C(C)=C/C=C(\C)C(=O)c1c(O)cc([C@H](C)CC/C=C/NC(=O)OC)oc1=O (some centres not stated) [CORALLOPYRONIN A] | 1 µg/mL (≈ 1.9 µM) | > 64 µg/mL | 64 µg/mL (≈ 121 µM) | MIC (Bacillus cereus): 2 µg/mL (≈ 3.79 µM); MIC (Bacillus licheniformis [4]): 2 µg/mL (≈ 3.79 µM); MIC (Bacillus subtilis): 16 µg/mL (≈ 30.3 µM); MIC (Micrococcus luteus): 1 µg/mL (≈ 1.9 µM); MIC [5]: > 64 µg/mL; MIC (Staphylococcus aureus [6]): 0.5 µg/mL (≈ 0.948 µM); inhibition (Wolbachia [8]): Dose-dependent effect
C/C=C/C/C=C(/C)[C@@H](CC/C(C)=C/C=C(\C)C(=O)c1c(O)cc([C@H](C)CC/C=C/NC(=O)OC)oc1=O)OC(=O)c1ccccc1 | > 64 µg/mL | > 64 µg/mL | 64 µg/mL (≈ 101 µM) | –
C/C=C/C/C=C(/C)[C@@H](CC/C(C)=C/C=C(\C)C(=O)c1c(O)cc([C@H](C)CC/C=C/NC(=O)OC)oc1=O)OC(=O)[C@@](OC)(c1ccccc1)C(F)(F)F | 64 µg/mL (≈ 86 µM) | > 64 µg/mL | > 16 µg/mL | –

— ChEMBL document CHEMBL3632497, “Insights into Structure-Activity Relationships of Bacterial RNA Polymerase Inhibiting Corallopyronin Derivatives” (2015)
